Measurements published in ChEMBL document CHEMBL4020831, “Discovery of GDC-0853: A Potent, Selective, and Noncovalent Bruton's Tyrosine Kinase Inhibitor in Early Clinical Development” (J Med Chem, 2018).
Converted amounts (≈) assume the structure as drawn.

What was measured:
[1] = target: T1, Tyrosine-protein kinase BTK (Homo sapiens, UniProt Q06187)
Description: Inhibition of BTK in human whole blood-derived CD19+ B cells assessed as suppression of anti-IgM stimulated-CD69 expression preincubated for 1 hr followed by IgM stimulation for 18 hrs by FACS analysis

physchem = details: buffer, pH 7.4
[2] = Clearance in human liver microsomes at 1 uM incubated up to 60 mins by LC-MS/MS method; type: ADME, microsome
[3] = Permeability across apical to basolateral in MDCK1 cells; type: ADME, cell-based, Canis lupus familiaris; details: dog, MDCK; read-out: permeability
[4] = target: T1, Tyrosine-protein kinase BTK; experiment: Inhibition of human recombinant C-terminal polyhistidine tagged BTK (1 to 659 residues)-mediated synthetic peptide substrate phosphorylation expressed in baculovirus-infected insect cells
[5] = Clearance in human hepatocytes at 1 uM incubated up to 60 mins by LC-MS/MS method; type: ADME, cell-based, Hepatocyte
in vitro = details: dog, MDCK
Description: Efflux ratio of permeability in MDCK1 cells

TXK = target: T2, TXK (Homo sapiens, UniProt P42681); experiment: Inhibition of human full length GST-tagged TXK expressed in baculovirus at 1 uM by Z'-LYTE assay
T2 sequence (P42681 whole entry): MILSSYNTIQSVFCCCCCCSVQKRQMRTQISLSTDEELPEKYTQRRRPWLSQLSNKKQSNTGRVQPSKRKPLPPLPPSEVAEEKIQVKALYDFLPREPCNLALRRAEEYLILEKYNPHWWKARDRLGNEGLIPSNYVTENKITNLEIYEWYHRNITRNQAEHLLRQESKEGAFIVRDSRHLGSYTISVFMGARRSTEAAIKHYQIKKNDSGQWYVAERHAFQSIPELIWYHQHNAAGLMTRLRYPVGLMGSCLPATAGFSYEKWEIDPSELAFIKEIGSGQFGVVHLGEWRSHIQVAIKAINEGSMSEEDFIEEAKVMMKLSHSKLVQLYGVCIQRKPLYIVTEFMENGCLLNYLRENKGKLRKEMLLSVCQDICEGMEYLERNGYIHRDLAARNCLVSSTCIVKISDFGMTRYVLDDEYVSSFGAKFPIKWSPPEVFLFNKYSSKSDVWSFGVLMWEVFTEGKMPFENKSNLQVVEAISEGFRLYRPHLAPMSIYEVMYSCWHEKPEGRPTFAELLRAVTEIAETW

ERBB2 = ERBB2 (Homo sapiens, UniProt P04626); experiment: Inhibition of recombinant human cytoplasmic His-tagged ERBB2 expressed in baculovirus at 1 uM by Z'-LYTE assay
ERBB2, sequence (P04626 whole entry): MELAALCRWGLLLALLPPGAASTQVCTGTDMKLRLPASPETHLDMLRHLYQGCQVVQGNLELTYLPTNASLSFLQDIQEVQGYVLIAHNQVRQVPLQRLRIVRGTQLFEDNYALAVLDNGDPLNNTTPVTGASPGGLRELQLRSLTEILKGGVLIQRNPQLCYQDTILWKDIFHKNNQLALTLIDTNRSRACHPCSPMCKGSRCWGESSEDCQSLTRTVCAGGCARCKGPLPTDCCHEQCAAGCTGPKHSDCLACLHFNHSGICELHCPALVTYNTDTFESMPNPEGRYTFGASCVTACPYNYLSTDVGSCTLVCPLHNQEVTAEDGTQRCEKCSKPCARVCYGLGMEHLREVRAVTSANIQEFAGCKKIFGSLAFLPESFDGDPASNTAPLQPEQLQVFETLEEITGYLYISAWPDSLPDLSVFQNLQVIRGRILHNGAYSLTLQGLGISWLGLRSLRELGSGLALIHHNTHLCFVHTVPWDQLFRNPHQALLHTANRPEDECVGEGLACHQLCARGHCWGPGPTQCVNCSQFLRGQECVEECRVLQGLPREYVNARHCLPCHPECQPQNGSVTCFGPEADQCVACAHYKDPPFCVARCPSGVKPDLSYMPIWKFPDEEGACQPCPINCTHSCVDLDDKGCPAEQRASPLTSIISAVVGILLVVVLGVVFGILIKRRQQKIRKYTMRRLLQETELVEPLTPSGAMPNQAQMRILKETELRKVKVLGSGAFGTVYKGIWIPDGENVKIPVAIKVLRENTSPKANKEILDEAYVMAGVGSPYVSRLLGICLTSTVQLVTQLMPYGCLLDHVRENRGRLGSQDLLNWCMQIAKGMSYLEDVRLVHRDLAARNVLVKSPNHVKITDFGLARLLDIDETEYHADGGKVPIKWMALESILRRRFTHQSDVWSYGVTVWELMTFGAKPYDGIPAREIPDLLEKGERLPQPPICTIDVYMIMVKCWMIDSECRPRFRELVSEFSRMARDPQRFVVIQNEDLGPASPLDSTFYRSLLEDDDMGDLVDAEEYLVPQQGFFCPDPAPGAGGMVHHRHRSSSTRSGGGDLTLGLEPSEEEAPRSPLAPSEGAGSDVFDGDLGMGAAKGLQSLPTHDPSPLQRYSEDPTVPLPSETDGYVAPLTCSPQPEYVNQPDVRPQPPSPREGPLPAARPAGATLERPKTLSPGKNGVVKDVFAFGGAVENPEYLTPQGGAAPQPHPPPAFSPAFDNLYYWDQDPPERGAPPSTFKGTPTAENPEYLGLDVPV

[6] = target: T1, Tyrosine-protein kinase BTK; remark: listed apart in the source
Description: Inhibition of BTK in human whole blood derived-basophils assessed as suppression of IgE mediated-FcepsilonR ligation-stimulated CD63 expression

LTK = LTK (Homo sapiens, UniProt P29376); experiment: Inhibition of recombinant human cytoplasmic GST-tagged LTK expressed in baculovirus at 1 uM by Z'-LYTE assay
EGFR = EGFR (Homo sapiens, UniProt P00533); experiment: Inhibition of recombinant human cytoplasmic GST-tagged EGFR expressed in baculovirus at 1 uM by Z'-LYTE assay
EGFR, sequence (P00533 whole entry): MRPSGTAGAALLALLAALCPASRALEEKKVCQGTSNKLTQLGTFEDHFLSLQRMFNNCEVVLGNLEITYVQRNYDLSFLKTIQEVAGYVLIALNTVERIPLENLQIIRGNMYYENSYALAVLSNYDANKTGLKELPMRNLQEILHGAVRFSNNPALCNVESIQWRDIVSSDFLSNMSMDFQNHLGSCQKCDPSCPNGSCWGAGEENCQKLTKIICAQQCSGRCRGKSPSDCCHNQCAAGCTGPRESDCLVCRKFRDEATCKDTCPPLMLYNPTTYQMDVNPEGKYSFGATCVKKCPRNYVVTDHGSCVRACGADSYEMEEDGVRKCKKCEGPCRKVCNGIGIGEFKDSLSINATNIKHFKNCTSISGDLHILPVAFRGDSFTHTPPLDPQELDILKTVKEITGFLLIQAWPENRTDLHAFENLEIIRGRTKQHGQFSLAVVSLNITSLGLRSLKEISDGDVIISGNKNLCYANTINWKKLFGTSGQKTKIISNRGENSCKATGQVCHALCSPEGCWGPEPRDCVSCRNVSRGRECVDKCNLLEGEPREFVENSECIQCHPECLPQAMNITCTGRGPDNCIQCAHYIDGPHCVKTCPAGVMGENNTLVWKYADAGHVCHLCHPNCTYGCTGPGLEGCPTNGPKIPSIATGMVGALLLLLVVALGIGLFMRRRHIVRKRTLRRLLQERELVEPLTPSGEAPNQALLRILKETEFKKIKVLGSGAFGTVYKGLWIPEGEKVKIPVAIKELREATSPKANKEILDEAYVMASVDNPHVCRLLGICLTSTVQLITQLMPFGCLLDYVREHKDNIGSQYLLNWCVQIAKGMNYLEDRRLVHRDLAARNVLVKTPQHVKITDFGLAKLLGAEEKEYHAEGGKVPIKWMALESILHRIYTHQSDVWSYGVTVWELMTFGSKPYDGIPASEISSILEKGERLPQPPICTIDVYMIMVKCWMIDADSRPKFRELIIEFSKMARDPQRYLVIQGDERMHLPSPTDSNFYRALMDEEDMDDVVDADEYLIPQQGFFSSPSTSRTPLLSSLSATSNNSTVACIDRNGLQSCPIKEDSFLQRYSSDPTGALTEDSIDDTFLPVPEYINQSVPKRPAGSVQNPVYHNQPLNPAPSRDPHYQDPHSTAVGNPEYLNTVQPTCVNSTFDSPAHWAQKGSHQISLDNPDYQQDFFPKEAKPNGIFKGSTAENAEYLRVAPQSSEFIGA

ERBB4 = ERBB4 (Homo sapiens, UniProt Q15303); experiment: Inhibition of recombinant human cytoplasmic GST-tagged ERBB4 expressed in baculovirus at 1 uM by Z'-LYTE assay
ERBB4, sequence (Q15303 whole entry): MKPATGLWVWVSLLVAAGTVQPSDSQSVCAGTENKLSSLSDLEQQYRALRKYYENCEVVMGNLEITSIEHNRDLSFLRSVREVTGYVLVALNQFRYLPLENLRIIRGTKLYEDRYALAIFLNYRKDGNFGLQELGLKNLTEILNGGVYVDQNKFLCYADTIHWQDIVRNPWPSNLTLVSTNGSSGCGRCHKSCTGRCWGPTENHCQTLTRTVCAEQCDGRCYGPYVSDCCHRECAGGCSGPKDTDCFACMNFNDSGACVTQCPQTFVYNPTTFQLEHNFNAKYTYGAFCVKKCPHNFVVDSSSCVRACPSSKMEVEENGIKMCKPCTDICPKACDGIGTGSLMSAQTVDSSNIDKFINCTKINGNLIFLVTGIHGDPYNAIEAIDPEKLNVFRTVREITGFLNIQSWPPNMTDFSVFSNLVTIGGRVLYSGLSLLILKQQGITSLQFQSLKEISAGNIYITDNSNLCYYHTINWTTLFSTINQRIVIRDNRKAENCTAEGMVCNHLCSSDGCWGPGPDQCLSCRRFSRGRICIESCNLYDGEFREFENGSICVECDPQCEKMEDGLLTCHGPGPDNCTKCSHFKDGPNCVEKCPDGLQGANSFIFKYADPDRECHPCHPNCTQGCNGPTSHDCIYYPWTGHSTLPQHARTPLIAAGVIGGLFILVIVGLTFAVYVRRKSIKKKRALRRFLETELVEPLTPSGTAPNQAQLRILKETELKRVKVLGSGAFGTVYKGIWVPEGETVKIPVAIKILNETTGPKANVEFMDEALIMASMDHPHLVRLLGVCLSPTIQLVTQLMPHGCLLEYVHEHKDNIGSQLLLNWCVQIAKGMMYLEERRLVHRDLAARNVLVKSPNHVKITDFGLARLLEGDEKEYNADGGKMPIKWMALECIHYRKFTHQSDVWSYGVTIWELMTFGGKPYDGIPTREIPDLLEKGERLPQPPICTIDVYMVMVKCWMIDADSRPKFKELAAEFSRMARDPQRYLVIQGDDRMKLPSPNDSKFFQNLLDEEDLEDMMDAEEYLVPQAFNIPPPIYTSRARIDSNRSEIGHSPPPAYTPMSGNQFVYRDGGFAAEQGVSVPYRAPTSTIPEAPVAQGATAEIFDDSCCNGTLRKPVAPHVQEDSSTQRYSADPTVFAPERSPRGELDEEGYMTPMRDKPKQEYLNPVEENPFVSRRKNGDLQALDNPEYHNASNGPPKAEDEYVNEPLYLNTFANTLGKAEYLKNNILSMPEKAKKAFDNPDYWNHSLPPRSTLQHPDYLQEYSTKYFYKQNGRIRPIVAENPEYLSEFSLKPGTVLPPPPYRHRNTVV

JAK3 = target: T3, JAK3 (Homo sapiens, UniProt P52333); experiment: Inhibition of recombinant human catalytic GST-tagged JAK3 expressed in baculovirus at 1 uM by Z'-LYTE assay
T3 sequence (P52333 whole entry): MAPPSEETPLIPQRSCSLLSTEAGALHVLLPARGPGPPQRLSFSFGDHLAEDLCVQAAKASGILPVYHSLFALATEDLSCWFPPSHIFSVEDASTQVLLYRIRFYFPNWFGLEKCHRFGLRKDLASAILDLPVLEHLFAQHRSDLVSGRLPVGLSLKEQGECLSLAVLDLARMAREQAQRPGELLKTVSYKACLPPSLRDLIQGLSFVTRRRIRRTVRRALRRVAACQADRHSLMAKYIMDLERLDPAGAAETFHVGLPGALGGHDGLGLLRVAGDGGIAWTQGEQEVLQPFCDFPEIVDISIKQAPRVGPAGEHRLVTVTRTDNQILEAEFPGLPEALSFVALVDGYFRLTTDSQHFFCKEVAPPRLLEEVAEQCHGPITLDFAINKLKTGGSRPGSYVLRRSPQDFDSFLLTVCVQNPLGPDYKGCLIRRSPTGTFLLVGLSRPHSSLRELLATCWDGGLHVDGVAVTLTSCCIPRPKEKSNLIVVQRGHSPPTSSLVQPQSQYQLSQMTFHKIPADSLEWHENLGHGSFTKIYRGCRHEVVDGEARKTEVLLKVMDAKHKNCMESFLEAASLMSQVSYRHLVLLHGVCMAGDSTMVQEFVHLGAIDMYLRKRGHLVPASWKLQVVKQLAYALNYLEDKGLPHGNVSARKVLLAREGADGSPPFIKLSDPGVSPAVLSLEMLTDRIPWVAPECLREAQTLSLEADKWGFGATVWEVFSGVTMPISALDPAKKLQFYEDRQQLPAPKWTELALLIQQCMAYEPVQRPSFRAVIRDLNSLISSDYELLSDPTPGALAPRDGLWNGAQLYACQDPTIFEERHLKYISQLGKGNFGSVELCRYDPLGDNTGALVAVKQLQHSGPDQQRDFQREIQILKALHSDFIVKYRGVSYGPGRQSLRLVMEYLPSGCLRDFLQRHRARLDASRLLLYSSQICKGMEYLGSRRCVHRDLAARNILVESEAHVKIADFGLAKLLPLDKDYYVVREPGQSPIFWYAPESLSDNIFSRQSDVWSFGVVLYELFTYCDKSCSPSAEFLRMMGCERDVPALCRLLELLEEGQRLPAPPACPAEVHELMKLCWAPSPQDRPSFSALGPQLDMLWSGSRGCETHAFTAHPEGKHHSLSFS

BLK = BLK (Homo sapiens, UniProt P51451); experiment: Inhibition of recombinant human full length His-tagged BLK expressed in baculovirus at 1 uM by Z'-LYTE assay
BLK, sequence (P51451 whole entry): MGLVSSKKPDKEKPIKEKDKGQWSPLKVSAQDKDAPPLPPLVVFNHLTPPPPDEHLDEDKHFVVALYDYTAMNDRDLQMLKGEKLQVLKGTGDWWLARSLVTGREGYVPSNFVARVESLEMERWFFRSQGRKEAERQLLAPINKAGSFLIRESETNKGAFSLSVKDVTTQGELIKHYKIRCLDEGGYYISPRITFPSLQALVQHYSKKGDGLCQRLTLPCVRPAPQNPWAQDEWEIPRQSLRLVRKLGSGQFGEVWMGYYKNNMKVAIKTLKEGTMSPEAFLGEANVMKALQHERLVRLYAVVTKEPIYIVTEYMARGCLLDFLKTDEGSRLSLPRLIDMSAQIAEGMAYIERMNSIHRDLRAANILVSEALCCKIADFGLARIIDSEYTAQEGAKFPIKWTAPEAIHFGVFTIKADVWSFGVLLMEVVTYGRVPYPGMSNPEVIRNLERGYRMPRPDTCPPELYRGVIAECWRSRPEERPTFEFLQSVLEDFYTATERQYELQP

BMX = BMX (Homo sapiens, UniProt P51813); experiment: Inhibition of cytoplasmic recombinant human full length His-tagged BMX expressed in baculovirus at 1 uM by Z'-LYTE assay
TEC = target: T4, TEC (Homo sapiens, UniProt P42680); experiment: Inhibition of recombinant human cytoplasmic full length His-tagged TEC expressed in baculovirus at 1 uM by Z'-LYTE assay
T4 sequence (P42680 whole entry): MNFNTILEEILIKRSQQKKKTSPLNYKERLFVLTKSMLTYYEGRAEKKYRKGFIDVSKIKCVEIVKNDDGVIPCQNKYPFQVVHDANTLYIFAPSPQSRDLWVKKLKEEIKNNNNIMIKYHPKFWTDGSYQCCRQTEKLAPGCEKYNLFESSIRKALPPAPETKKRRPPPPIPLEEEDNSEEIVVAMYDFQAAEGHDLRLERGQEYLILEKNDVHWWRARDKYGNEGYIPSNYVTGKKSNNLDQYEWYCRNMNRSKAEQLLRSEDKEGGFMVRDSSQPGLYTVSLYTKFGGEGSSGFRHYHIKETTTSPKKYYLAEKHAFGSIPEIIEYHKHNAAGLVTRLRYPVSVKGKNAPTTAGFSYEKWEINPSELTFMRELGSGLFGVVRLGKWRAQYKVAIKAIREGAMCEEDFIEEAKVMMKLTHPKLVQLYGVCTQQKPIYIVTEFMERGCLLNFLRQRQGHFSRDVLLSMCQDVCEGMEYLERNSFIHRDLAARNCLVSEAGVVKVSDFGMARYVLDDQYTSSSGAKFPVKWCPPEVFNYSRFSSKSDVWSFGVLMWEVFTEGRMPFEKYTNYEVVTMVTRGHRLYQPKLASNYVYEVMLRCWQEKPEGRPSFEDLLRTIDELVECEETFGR

[7] = Kinetic solubility of the compound; type: physicochemical; details: read-out: Kinetic_solubility

T1 sequence (Q06187 whole entry): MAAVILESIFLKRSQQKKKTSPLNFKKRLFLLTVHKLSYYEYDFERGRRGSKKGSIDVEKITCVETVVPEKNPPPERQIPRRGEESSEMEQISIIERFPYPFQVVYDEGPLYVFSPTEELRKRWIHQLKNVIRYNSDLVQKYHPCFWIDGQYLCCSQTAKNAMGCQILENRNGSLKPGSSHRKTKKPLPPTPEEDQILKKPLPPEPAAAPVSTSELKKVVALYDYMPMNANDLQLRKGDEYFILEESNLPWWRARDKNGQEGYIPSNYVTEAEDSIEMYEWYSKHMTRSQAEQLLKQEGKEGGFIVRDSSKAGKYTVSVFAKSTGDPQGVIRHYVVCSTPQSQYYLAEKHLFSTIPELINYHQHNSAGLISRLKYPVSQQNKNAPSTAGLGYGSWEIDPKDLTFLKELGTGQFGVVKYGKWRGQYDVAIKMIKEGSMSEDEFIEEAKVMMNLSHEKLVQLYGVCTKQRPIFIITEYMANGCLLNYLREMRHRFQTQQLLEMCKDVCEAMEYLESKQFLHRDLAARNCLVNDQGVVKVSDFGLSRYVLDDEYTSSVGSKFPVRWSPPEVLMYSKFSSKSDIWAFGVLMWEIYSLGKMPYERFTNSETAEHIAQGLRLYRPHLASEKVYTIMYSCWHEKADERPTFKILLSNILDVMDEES

| Structure (SMILES) | IC50 [1] [nM] | logD (physchem) | CLhep predicted at 1 µM [2] [mL/min/kg] | Papp A→B [3] [×10⁻⁶ cm/s] | Ki [4] [nM] | CLhep predicted at 1 µM [5] [mL/min/kg] | efflux ratio (in vitro) | inhibition at 1 µM (TXK) [%] | inhibition at 1 µM (ERBB2) [%] | IC50 [6] [nM] | inhibition at 1 µM (LTK) [%] | inhibition at 1 µM (EGFR) [%] | inhibition at 1 µM (ERBB4) [%] | inhibition at 1 µM (JAK3) [%] | inhibition at 1 µM (BLK) [%] | inhibition at 1 µM (BMX) [%] | inhibition at 1 µM (TEC) [%] | solubility kinetic [7] [µM] |
| --- | --- | --- | --- | --- | --- | --- | --- | --- | --- | --- | --- | --- | --- | --- | --- | --- | --- | --- |
| CC[C@H]1CN(C2COC2)CCN1c1ccc(Nc2cc(-c3ccnc(N4CCn5c(cc6c5CC(C)(C)C6)C4=O)c3CO)cn(C)c2=O)nc1 | 15.9 | 3.6 | 12 | 9.5 | 0.96 | 16 | 0.9 | – | – | – | – | – | – | – | – | – | – | – |
| C[C@H]1CN(C2COC2)CCN1c1cnc(Nc2cc(-c3ccnc(N4CCn5c(cc6c5CC(C)(C)C6)C4=O)c3CO)cn(C)c2=O)cn1 | 51.5 | – | 12 | 15.6 | 0.8 | 10 | 1.2 | – | – | – | – | – | – | – | – | – | – | – |
| Cn1cc(-c2cc(F)cc(N3CCn4c(cc5c4CCCC5)C3=O)c2CO)cc(Nc2ccc(N3CCN(C4COC4)CC3)cn2)c1=O | – | 3.1 | 12.3 | – | – | – | – | – | – | – | – | – | – | – | – | – | – | 12 (≈ 7.85 µg/mL) |
| C[C@@H]1CN(C2COC2)CCN1c1ccc(Nc2cc(-c3ccnc(N4CCn5c(cc6c5CC(C)(C)C6)C4=O)c3CO)cn(C)c2=O)nc1 | – | 2.8 | 15 | 7.8 | – | 14 | – | – | – | – | – | – | – | – | – | – | – | – |
| C[C@H]1CN(C2COC2)CCN1c1ccc(Nc2cc(-c3ccnc(N4CCn5c(cc6c5CC(C)(C)C6)C4=O)c3CO)nn(C)c2=O)nc1 | 16.1 | 3.7 | 11 | 17.3 | – | 13 | 0.9 | – | – | – | – | – | – | – | – | – | – | – |
| C[C@@H]1CN(c2ccc(Nc3cc(-c4ccnc(N5CCn6c(cc7c6CC(C)(C)C7)C5=O)c4CO)cn(C)c3=O)nc2)[C@@H](C)CN1C1COC1 | 10.2 | 3.5 | 12 | 7.2 | 1.3 | 12 | 0.9 | – | – | – | – | – | – | – | – | – | – | – |

The remaining lines, values ahead:

| IC50 [1] [nM] | logD (physchem) | CLhep predicted at 1 µM [2] [mL/min/kg] | Papp A→B [3] [×10⁻⁶ cm/s] | Ki [4] [nM] | CLhep predicted at 1 µM [5] [mL/min/kg] | efflux ratio (in vitro) | inhibition at 1 µM (TXK) [%] | inhibition at 1 µM (ERBB2) [%] | IC50 [6] [nM] | inhibition at 1 µM (LTK) [%] | inhibition at 1 µM (EGFR) [%] | inhibition at 1 µM (ERBB4) [%] | inhibition at 1 µM (JAK3) [%] | inhibition at 1 µM (BLK) [%] | inhibition at 1 µM (BMX) [%] | inhibition at 1 µM (TEC) [%] | solubility kinetic [7] [µM] | Structure (SMILES) |
| --- | --- | --- | --- | --- | --- | --- | --- | --- | --- | --- | --- | --- | --- | --- | --- | --- | --- | --- |
| 88.3 | – | – | – | – | – | – | 81 | 1 | 374 | 47 | 7 | 38 | -2 | 82 | 80 | 98 | – | Cc1c(-c2c(F)cc(C(N)=O)c3[nH]c4c(c23)CC[C@@H](C(C)(C)O)C4)cccc1-n1c(=O)c2cccc(F)c2n(C)c1=O |
| – | – | – | – | – | – | – | 95 | 6 | – | 19 | 34 | 76 | 89 | 44 | 99 | 92 | – | C=CC(=O)Nc1cccc(Nc2nc(Nc3ccc(OCCOC)cc3)ncc2F)c1 [SPEBRUTINIB] |
| – | – | – | – | – | – | – | 66 | 7 | – | -5 | -2 | 28 | -7 | 47 | – | 86 | – | CC#CC(=O)N1CC[C@@H](n2c(=O)n(-c3ccc(Oc4ccccc4)cc3)c3c(N)ncnc32)C1 [TIRABRUTINIB] |
